Laboratory results as given in ChEMBL document CHEMBL5053531, “Development of BromoTag: A "Bump-and-Hole"-PROTAC System to Induce Potent, Rapid, and Selective Degradation of Tagged Target Proteins” (J Med Chem, 2021).
The source made the active and inactive calls. No cut-off for these calls is given here.

Experiments:
[1] = Bioavailability in C57BL/6 mouse at 5 mg/kg, sc measured up to 8 hrs by LC-MS analysis; type: ADME, organism-based; details: in vivo
[2] = Half life in C57BL/6 mouse at 5 mg/kg, iv measured up to 8 hrs by LC-MS analysis; type: ADME, organism-based; details: in vivo
[3] = Half life in C57BL/6 mouse at 5 mg/kg, sc measured up to 8 hrs by LC-MS analysis; type: ADME, organism-based; details: in vivo
[4] = MRT (0 to infinity) in C57BL/6 mouse at 5 mg/kg, iv measured up to 8 hrs by LC-MS analysis; details: in vivo
[5] = AUC (0 to infinity) in C57BL/6 mouse at 5 mg/kg, sc measured up to 8 hrs by LC-MS analysis; type: ADME, organism-based; design: dose 5 mg/kg, time < 8 hrs, route sc; details: in vivo
[6] = biological target: T1, von Hippel-Lindau disease tumor suppressor/Bromodomain-containing protein 2 (Homo sapiens, UniProt P25440+P40337); assay: Bump and hole PROTAC activity at BromoTag-Brd2/VHL-bound E3 ligase in HEK293 cells assessed as Brd2 degradation at 1 uM measured after 6 hrs by Western blot analysis; type: cell-based
Target sequence in this assay (P25440 whole entry, looked up): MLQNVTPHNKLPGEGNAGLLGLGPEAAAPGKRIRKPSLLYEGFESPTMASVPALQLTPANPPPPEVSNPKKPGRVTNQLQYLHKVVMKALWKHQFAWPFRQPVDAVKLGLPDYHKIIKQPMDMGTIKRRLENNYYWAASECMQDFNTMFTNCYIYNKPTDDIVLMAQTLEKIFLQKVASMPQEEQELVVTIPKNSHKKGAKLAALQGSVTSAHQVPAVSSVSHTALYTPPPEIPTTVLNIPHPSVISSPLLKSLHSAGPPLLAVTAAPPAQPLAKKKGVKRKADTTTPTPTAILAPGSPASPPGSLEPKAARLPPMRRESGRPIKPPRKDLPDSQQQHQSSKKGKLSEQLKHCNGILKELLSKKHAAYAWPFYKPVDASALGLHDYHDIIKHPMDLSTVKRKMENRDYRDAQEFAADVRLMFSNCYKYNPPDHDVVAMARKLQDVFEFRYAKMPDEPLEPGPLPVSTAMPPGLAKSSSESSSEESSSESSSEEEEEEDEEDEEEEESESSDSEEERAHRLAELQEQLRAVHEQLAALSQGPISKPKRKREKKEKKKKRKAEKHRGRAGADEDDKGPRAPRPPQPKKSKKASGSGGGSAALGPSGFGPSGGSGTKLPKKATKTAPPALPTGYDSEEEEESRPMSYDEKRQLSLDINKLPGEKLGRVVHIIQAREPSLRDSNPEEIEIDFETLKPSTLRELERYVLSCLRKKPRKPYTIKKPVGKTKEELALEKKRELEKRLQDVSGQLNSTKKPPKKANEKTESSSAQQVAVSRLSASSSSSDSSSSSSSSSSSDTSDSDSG
Target sequence in this assay (P40337 whole entry, looked up): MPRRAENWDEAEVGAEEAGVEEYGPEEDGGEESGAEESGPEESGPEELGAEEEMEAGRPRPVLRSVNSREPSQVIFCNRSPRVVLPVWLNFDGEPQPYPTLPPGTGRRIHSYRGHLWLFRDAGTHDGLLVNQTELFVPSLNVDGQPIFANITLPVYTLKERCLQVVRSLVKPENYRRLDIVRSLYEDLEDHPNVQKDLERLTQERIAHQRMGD

[7] = biological target: T1, von Hippel-Lindau disease tumor suppressor/Bromodomain-containing protein 2; assay: Bump and hole PROTAC activity at BromoTag-Brd2/VHL-bound E3 ligase in HEK293 cells assessed as Brd2 degradation measured after 6 hrs by Western blot analysis; type: cell-based
Target sequence in this assay (P25440 whole entry): as the sequence (P25440 whole entry, looked up) above
Target sequence in this assay (P40337 whole entry): as the sequence (P40337 whole entry, looked up) above

[8] = biological target: T1, von Hippel-Lindau disease tumor suppressor/Bromodomain-containing protein 2; assay: Bump and hole PROTAC activity at BromoTag-Brd2/VHL-bound E3 ligase in HEK293 cells assessed as Brd2 degradation at 0.001 to 10 uM measured after 6 hrs by Western blot analysis; type: cell-based; details: dose 0.001-10 µM
Target sequence in this assay (P25440 whole entry, looked up): as the sequence (P25440 whole entry, looked up) above
Target sequence in this assay (P40337 whole entry, looked up): as the sequence (P40337 whole entry, looked up) above

[9] = Stability in mouse plasma measured up to 60 mins; type: ADME, cell-free; details: 1 h
CWR22R = assay: cells; details: Homo sapiens, 22Rv1, 48 h, read-out: pEC50 (converted)
Description: Antiproliferative activity against human BET-sensitive 22Rv1 cells assessed as reduction in cell viability measured after 48 hrs by Celltiter-Glo assay

Q: For `Cc1ncsc1-c1ccc(CNC(=O)[C@@H]2C[C@@H](O)CN2C(=O)[C@@H](NC(=O)COCCOCCOCCNC(=O)C[C@@H]2N=C(c3ccc(Cl)cc3)c3c(sc(C)c3C)-n3c(C)nnc32)C(C)(C)C)cc1`, which bioavailability [1] is on record?
A: 83%

Q: What about the half-life [2] of the same molecule?
A: 1.04 h

Q: And the half-life [3]?
A: 2.95 h

Q: And the MRT inf [4]?
A: 0.34 h

Q: And the AUC(0-inf) [5]?
A: 3.76 µM·h

Q: Which Activity [6] does the source give for `CC[C@@H](C(=O)NCCOCCOCCOCC(=O)N[C@H](C(=O)N1C[C@H](O)C[C@H]1C(=O)NCc1ccc(-c2scnc2C)cc1)C(C)(C)C)[C@@H]1N=C(c2ccc(Cl)cc2)c2cc(OC)ccc2-n2c(C)nnc21` (mixture of isomers) here?
A: inactive

Q: Which pDC50 [7] does the source give for `CCC(C(=O)OCCOCCCOCC(=O)N[C@H](C(=O)N1C[C@H](O)C[C@H]1C(=O)N[C@@H](C)c1ccc(-c2scnc2C)cc1)C(C)(C)C)C1N=C(c2ccc(Cl)cc2)c2c(sc(C)c2C)-n2c(C)nnc21` (mixture of isomers) here?
A: 7.8

Q: For `CCC(C(=O)NCCOCCCOCC(=O)N[C@H](C(=O)N1C[C@H](O)C[C@H]1C(=O)N[C@@H](C)c1ccc(-c2scnc2C)cc1)C(C)(C)C)C1N=C(c2ccc(Cl)cc2)c2c(sc(C)c2C)-n2c(C)nnc21` (mixture of isomers), which Brd2 degradation activity [8] is on record?
A: Active

Q: Which bioavailability [1] does the source give for `CC[C@@H](C(=O)OCCOCCOCCOCC(=O)N[C@H](C(=O)N1C[C@H](O)C[C@H]1C(=O)NCc1ccc(-c2scnc2C)cc1)C(C)(C)C)[C@@H]1N=C(c2ccc(Cl)cc2)c2c(sc(C)c2C)-n2c(C)nnc21` here?
A: 140%

Q: And the Stability [9]?
A: Stable

Q: Which EC50 (CWR22R) does the source give for `CC[C@@H](C(=O)OCCOCCOCCOCC(=O)N[C@H](C(=O)N1C[C@@H](O)C[C@H]1C(=O)NCc1ccc(-c2scnc2C)cc1)C(C)(C)C)[C@@H]1N=C(c2ccc(Cl)cc2)c2c(sc(C)c2C)-n2c(C)nnc21` here?
A: 5.01 µM

Q: For `CC[C@@H](C(=O)NCCOCCOCCOCC(=O)N[C@H](C(=O)N1C[C@H](O)C[C@H]1C(=O)NCc1ccc(-c2scnc2C)cc1)C(C)(C)C)[C@@H]1N=C(c2ccc(Cl)cc2)c2ccc(OC)cc2-n2c(C)nnc21` (mixture of isomers), which Activity [6] is on record?
A: inactive

Q: For `Cc1ncsc1-c1ccc([C@H](C)NC(=O)[C@@H]2C[C@@H](O)CN2C(=O)[C@@H](NC(=O)COCCCOCCOC(=O)C(C)C2N=C(c3ccc(Cl)cc3)c3c(sc(C)c3C)-n3c(C)nnc32)C(C)(C)C)cc1` (mixture of isomers), which Brd2 degradation activity [8] is on record?
A: Active

Q: Which Brd2 degradation activity [8] does the source give for `Cc1ncsc1-c1ccc(CNC(=O)[C@@H]2C[C@@H](O)CN2C(=O)[C@@H](NC(=O)COCCOCCOCCOC(=O)C(C)C2N=C(c3ccc(Cl)cc3)c3c(sc(C)c3C)-n3c(C)nnc32)C(C)(C)C)cc1` (mixture of isomers) here?
A: Active

Q: For `Cc1ncsc1-c1ccc(CNC(=O)[C@@H]2C[C@@H](O)CN2C(=O)[C@@H](NC(=O)COCCOCCOCCNC(=O)C(C)C2N=C(c3ccc(Cl)cc3)c3c(sc(C)c3C)-n3c(C)nnc32)C(C)(C)C)cc1` (mixture of isomers), which Brd2 degradation activity [8] is on record?
A: Active

Q: For `Cc1ncsc1-c1ccc([C@H](C)NC(=O)[C@@H]2C[C@@H](O)CN2C(=O)[C@@H](NC(=O)COCCCOCCNC(=O)C(C)C2N=C(c3ccc(Cl)cc3)c3c(sc(C)c3C)-n3c(C)nnc32)C(C)(C)C)cc1` (mixture of isomers), which Brd2 degradation activity [8] is on record?
A: Active

Q: With `COc1ccc2c(c1)-n1c(C)nnc1[C@H]([C@@H](C)C(=O)NCCOCCOCCOCC(=O)N[C@H](C(=O)N1C[C@H](O)C[C@H]1C(=O)NCc1ccc(-c3scnc3C)cc1)C(C)(C)C)N=C2c1ccc(Cl)cc1` (mixture of isomers) as the molecule, how does the Activity [6] read?
A: inactive
